In patent US20140287918A1, “USE OF PEUMUS BOLDUS EXTRACT OBTAINED BY MEANS OF IN VIVO CULTURE AND HAVING ANTI-BOTRYTIS, ALLELOPATHIC AND ANTIOXIDANT ACTIVITY” (UNIVERSIDAD DE SANTIAGO DE CHILE, priority 2011, published 2014):
Converted amounts (≈) assume the structure as drawn.

Experiment: antioxidant capacity (scavenging of free radical DPPH)
Details: main component of the extract
From the text: The extract was obtained by sonication in ethanol 85% at a ratio of 1 g of tissue in 10 volumes of solvent.

EC50 (antioxidant capacity): 170 µg/mL (≈ 858 µM)
Compound: COc1cc(C(=O)O)cc(OC)c1O [syringic acid]
